Source: publication PMC11392244, “Characterization of a unique catechol-O-methyltransferase as a molecular drug target in parasitic filarial nematodes” (PLOS Neglected Tropical Diseases, 2024)
Several values for one entry are separate records, joined by “and”; a condition that tells them apart may be missing. Identical values can stand only once. Like-named read-outs stand apart in the source and are kept apart here.

Legend:
[1] = system: DiMT protein; test: DiMT enzyme activity, kinetics and substrate specificity (MTase-Glo methyltransferase assay); type: biochemical, Dirofilaria immitis
[2] = system: DiMT protein; type: biochemical, Dirofilaria immitis; details: for IC50: read-out: IC 50 (μM ± SEM)
[3] = system: D. immitis microfilariae; test: In vitro efficacy against live D. immitis microfilariae (motility, completely immotile %); type: cell-based, Dirofilaria immitis; details: for Completely Immotile Microfilariae (%): single replicate; for effect on microfilariae: up to 120 h of culture

## NCCc1c[nH]cn1 [Histamine]
[1]; DiMT 90 ng/μL, SAM 40 μM, substrate 300 μM
  Mean RLU: 167.3 RLU
[1]; SAM as co-substrate
  DiMT catalytic activity for methylation of the substrate: did not depict catalytic activity

## COc1ccc(-c2c(C)c(C(=O)O)nc(-c3ccc4c(O)c(OC)c5c(c4n3)=NC(C)(C)N=5)c2N)c(O)c1OC [NSC62709]
[2]; 40 µM
  Mean Percent Inhibition: 32.1% and 22.9% and 27.7%
  Mean Percent Inhibition, Average: 27.6%
[2]; 80 µM
  Mean Percent Inhibition: 63.8% and 49.7% and 46.2%
  Mean Percent Inhibition, Average: 53.2%
[2]; 120 µM
  Mean Percent Inhibition: 65.7% and 71.6% and 62.3%
  Mean Percent Inhibition, Average: 66.5%
[2]; 140 µM
  Mean Percent Inhibition: 72.8% and 64.4% and 72.4%
  Mean Percent Inhibition, Average: 69.9%
[2]; 180 µM
  Mean Percent Inhibition: 81.5% and 69.4% and 74.5%
  Mean Percent Inhibition, Average: 75.1%
[2]
  IC50: 76.2 ± 1.7 µM
[3]; 50 µM, 0 h
  Mean completely Immotile (%): 0%
  Completely Immotile Microfilariae (%): 0%
[3]; 50 µM, 24 h
  Mean completely Immotile (%): 1.67%
  Completely Immotile Microfilariae (%): 1% and 2% (2×)
[3]; 50 µM, 48 h
  Mean completely Immotile (%): 3.33%
  Completely Immotile Microfilariae (%): 3% (2×) and 4%
[3]; 50 µM, 72 h
  Mean completely Immotile (%): 5.67%
  Completely Immotile Microfilariae (%): 5% (2×) and 7%
[3]; 50 µM, 96 h
  Mean completely Immotile (%): 7.33%
  Completely Immotile Microfilariae (%): 7% and 9% and 6%
[3]; 50 µM, 120 h
  Mean completely Immotile (%): 14%
  Completely Immotile Microfilariae (%): 12% and 14% and 16%
[3]; 100 µM, 0 h
  Mean completely Immotile (%): 0%
  Completely Immotile Microfilariae (%): 0%
[3]; 100 µM, 24 h
  Mean completely Immotile (%): 3.67%
  Completely Immotile Microfilariae (%): 3% (2×) and 5%
[3]; 100 µM, 48 h
  Mean completely Immotile (%): 7%
  Completely Immotile Microfilariae (%): 7% and 6% and 8%
[3]; 100 µM, 72 h
  Mean completely Immotile (%): 9.33%
  Completely Immotile Microfilariae (%): 9% (2×) and 10%
[3]; 100 µM, 96 h
  Mean completely Immotile (%): 12.33%
  Completely Immotile Microfilariae (%): 10% and 12% and 15%
[3]; 100 µM, 120 h
  Mean completely Immotile (%): 17%
  Completely Immotile Microfilariae (%): 15% and 17% and 19%
[3]; 150 µM, 0 h
  Mean completely Immotile (%): 0%
  Completely Immotile Microfilariae (%): 0%
[3]; 150 µM, 24 h
  Mean completely Immotile (%): 4.67%
  Completely Immotile Microfilariae (%): 5% (2×) and 4%
[3]; 150 µM, 48 h
  Mean completely Immotile (%): 8.67%
  Completely Immotile Microfilariae (%): 9% and 6% and 11%
[3]; 150 µM, 72 h
  Mean completely Immotile (%): 12.33%
  Completely Immotile Microfilariae (%): 12% and 11% and 14%
[3]; 150 µM, 96 h
  Mean completely Immotile (%): 14.67%
  Completely Immotile Microfilariae (%): 13% and 14% and 17%
[3]; 150 µM, 120 h
  Mean completely Immotile (%): 21.33%
  Completely Immotile Microfilariae (%): 20% and 21% and 23%
[3]; 200 µM, 0 h
  Mean completely Immotile (%): 0%
  Completely Immotile Microfilariae (%): 0%
[3]; 200 µM, 24 h
  Mean completely Immotile (%): 6.67%
  Completely Immotile Microfilariae (%): 7% (2×) and 6%
[3]; 200 µM, 48 h
  Mean completely Immotile (%): 10.67%
  Completely Immotile Microfilariae (%): 12% and 9% and 11%
[3]; 200 µM, 72 h
  Mean completely Immotile (%): 14.33%
  Completely Immotile Microfilariae (%): 16% (2×) and 11%
[3]; 200 µM, 96 h
  Mean completely Immotile (%): 18.67%
  Completely Immotile Microfilariae (%): 19% and 17% and 20%
[3]; 200 µM, 120 h
  Mean completely Immotile (%): 25.33%
  Completely Immotile Microfilariae (%): 24% and 26% (2×)
[3]
  effect on microfilariae: insignificant effect

## O=c1c(O)cccc2cc(O)c(O)c(O)c12 [NSC35676]
[2]; 15 µM
  Mean Percent Inhibition (single experiments): 41.9 and 44.3 and 44.1
  Mean Percent Inhibition, Average: 43.4
[2]; 25 µM
  Mean Percent Inhibition (single experiments): 45.9 and 51.6 and 47.0
  Mean Percent Inhibition, Average: 48.2
[2]; 50 µM
  Mean Percent Inhibition (single experiments): 62.0 and 58.4 and 60.6
  Mean Percent Inhibition, Average: 60.4
[2]; 75 µM
  Mean Percent Inhibition (single experiments): 63.8 and 67.9 and 65.4
  Mean Percent Inhibition, Average: 65.7
[2]; 100 µM
  Mean Percent Inhibition (single experiments): 68.1 and 72.1 and 71.2
  Mean Percent Inhibition, Average: 70.5
[2]
  IC50: 25.2 ± 1.4 µM
[3]; 25 µM, 0 h
  Mean completely Immotile (%): 0%
  Completely Immotile Microfilariae (%): 0%
[3]; 25 µM, 24 h
  Mean completely Immotile (%): 1%
  Completely Immotile Microfilariae (%): 0% and 1% and 2%
[3]; 25 µM, 48 h
  Mean completely Immotile (%): 3%
  Completely Immotile Microfilariae (%): 2% and 3% and 4%
[3]; 25 µM, 72 h
  Mean completely Immotile (%): 4.33%
  Completely Immotile Microfilariae (%): 4% and 3% and 6%
[3]; 25 µM, 96 h
  Mean completely Immotile (%): 5.67%
  Completely Immotile Microfilariae (%): 5% and 4% and 8%
[3]; 25 µM, 120 h
  Mean completely Immotile (%): 9.33%
  Completely Immotile Microfilariae (%): 7% and 6% and 15%
[3]; 75 µM, 0 h
  Mean completely Immotile (%): 0%
  Completely Immotile Microfilariae (%): 0%
[3]; 75 µM, 24 h
  Mean completely Immotile (%): 2.33%
  Completely Immotile Microfilariae (%): 1% (2×) and 5%
[3]; 75 µM, 48 h
  Mean completely Immotile (%): 4.33%
  Completely Immotile Microfilariae (%): 4% and 3% and 6%
[3]; 75 µM, 72 h
  Mean completely Immotile (%): 9%
  Completely Immotile Microfilariae (%): 10% and 8% and 9%
[3]; 75 µM, 96 h
  Mean completely Immotile (%): 12%
  Completely Immotile Microfilariae (%): 12% and 11% and 13%
[3]; 75 µM, 120 h
  Mean completely Immotile (%): 15.67%
  Completely Immotile Microfilariae (%): 15% and 13% and 19%
[3]; 125 µM, 0 h
  Mean completely Immotile (%): 0%
  Completely Immotile Microfilariae (%): 0%
[3]; 125 µM, 24 h
  Mean completely Immotile (%): 4.33%
  Completely Immotile Microfilariae (%): 3% and 4% and 6%
[3]; 125 µM, 48 h
  Mean completely Immotile (%): 6%
  Completely Immotile Microfilariae (%): 5% and 4% and 9%
[3]; 125 µM, 72 h
  Mean completely Immotile (%): 12.33%
  Completely Immotile Microfilariae (%): 12% and 10% and 15%
[3]; 125 µM, 96 h
  Mean completely Immotile (%): 20.33%
  Completely Immotile Microfilariae (%): 16% and 15% and 30%
[3]; 125 µM, 120 h
  Mean completely Immotile (%): 18.67%
  Completely Immotile Microfilariae (%): 19% and 15% and 22%
[3]; 200 µM, 0 h
  Mean completely Immotile (%): 0%
  Completely Immotile Microfilariae (%): 0%
[3]; 200 µM, 24 h
  Mean completely Immotile (%): 5%
  Completely Immotile Microfilariae (%): 5% and 4% and 6%
[3]; 200 µM, 48 h
  Mean completely Immotile (%): 7.33%
  Completely Immotile Microfilariae (%): 5% and 6% and 11%
[3]; 200 µM, 72 h
  Mean completely Immotile (%): 13.33%
  Completely Immotile Microfilariae (%): 15% and 13% and 12%
[3]; 200 µM, 96 h
  Mean completely Immotile (%): 18.67%
  Completely Immotile Microfilariae (%): 20% and 19% and 17%
[3]; 200 µM, 120 h
  Mean completely Immotile (%): 23%
  Completely Immotile Microfilariae (%): 23% and 22% and 24%
[3]
  effect on microfilariae: insignificant effect

## COc1cc(C)c2c(c1C=O)Oc1c(c(C)c(O)c3c1C(O)OC3=O)OC2=O (stereo not shown) [NSC87511]
[2]
  IC50: 155 ± 2.2 µM
[3]
  effect on microfilariae: insignificant effect
